From patent US20240391931A1 (Bristol-Myers Squibb Company, priority 2021, published 2024)

Tests used:
HER2 WT = biological target: T1, HER2 WT (Homo sapiens, UniProt P04626); assay: Enzymatic assay HER2 WT (method a); format: biochemical; conditions: [HER2 WT]=12.5 nM, [ATP]=25 μM, [Peptide 22]=1 μM
T1 construct: purchased ProQinase, Freiburg, Germany ERBB2 0108-0000-1
Outline: (§1)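 Microfluidic mobility-shift kinase assay with Peptide 22 (1 μM) in HEPES pH 7.5, MnCl2, MgCl2, Tween 20, TCEP. HER2 WT 12.5 nM and HER2 YVMA 5 nM each used 25 μM ATP; EGFR WT 2 nM used 1 mM ATP. IC50 came from initial-velocity (0–3600 s) percent inhibition, fitted to a variable-slope model.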

HER2YVMA = HER2YVMA (Homo sapiens, UniProt P04626, INS775YVMA); assay: Enzymatic assay HER2YVMA (method b); format: biochemical; set-up: purchased Viva biotech, Shanghai, China custom purification; conditions: [HER2YVMA]=5 nM, [ATP]=25 μM, [Peptide 22]=1 μM
Outline: as §1

HER2YVMA, sequence (P04626 with tags, fused parts or gaps INS775YVMA): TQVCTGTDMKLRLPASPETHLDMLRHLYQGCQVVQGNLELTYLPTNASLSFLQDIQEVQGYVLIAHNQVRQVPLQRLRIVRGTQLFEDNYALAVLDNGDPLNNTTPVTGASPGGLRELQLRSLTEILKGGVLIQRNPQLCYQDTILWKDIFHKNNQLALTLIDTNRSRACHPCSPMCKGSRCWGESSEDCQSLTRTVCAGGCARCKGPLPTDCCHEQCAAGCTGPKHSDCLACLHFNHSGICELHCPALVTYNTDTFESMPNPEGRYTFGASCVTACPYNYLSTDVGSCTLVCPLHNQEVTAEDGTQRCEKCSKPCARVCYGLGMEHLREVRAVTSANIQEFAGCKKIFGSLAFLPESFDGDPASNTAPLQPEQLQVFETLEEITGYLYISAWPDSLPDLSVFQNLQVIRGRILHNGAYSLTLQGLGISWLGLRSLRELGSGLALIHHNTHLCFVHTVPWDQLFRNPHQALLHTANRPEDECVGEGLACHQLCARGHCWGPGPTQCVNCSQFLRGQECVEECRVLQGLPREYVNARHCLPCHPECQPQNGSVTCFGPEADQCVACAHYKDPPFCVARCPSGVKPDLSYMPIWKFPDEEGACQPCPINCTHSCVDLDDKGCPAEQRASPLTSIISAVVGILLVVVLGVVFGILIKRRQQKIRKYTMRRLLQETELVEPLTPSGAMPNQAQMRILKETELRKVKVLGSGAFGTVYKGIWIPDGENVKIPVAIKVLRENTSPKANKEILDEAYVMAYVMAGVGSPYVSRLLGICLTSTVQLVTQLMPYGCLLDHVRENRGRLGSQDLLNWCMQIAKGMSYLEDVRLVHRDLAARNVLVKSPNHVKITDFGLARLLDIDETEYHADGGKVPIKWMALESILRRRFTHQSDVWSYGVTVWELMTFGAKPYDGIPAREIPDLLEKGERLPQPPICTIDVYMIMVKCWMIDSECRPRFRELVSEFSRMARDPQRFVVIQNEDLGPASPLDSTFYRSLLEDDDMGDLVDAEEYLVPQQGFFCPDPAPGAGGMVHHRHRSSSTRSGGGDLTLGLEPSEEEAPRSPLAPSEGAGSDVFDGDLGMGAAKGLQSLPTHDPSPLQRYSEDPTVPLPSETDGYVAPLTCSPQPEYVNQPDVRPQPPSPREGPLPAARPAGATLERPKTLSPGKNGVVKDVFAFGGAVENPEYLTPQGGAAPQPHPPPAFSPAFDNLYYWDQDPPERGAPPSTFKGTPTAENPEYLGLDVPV
T1 sequence (P04626 23-1255): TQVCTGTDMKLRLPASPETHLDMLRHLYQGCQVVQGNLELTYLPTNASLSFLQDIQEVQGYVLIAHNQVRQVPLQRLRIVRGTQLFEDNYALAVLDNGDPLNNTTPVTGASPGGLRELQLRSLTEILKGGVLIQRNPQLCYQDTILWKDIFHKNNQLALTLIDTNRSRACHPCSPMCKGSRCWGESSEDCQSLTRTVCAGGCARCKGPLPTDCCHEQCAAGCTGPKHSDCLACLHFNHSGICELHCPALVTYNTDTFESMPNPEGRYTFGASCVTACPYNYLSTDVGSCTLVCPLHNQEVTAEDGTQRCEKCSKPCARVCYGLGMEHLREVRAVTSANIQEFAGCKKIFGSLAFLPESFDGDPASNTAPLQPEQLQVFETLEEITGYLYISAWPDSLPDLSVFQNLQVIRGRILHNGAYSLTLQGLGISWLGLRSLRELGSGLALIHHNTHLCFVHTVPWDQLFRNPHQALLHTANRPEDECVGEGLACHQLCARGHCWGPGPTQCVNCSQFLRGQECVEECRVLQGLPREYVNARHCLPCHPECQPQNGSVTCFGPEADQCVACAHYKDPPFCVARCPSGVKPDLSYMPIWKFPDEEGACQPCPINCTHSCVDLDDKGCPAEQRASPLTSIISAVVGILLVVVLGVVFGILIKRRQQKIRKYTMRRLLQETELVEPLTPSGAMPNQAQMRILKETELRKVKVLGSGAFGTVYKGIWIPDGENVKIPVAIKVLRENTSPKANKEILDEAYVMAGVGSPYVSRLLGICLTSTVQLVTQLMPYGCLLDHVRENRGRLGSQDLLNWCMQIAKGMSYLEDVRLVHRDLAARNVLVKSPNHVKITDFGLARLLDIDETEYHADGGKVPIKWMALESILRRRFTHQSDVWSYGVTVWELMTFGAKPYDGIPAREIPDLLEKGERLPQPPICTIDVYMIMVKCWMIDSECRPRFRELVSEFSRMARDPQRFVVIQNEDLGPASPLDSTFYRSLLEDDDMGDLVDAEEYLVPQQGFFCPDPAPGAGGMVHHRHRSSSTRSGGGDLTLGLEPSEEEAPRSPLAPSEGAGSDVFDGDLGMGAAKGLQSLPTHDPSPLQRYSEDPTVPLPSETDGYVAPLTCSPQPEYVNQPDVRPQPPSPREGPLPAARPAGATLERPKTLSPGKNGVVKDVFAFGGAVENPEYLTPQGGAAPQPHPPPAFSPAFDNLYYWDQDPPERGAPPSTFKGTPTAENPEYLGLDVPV

Structure (SMILES) | IC50 (HER2 WT) | IC50 (HER2YVMA)
Cc1ccc(Oc2ccc(Nc3ncnc4sc5c(c34)CCN(C(=O)/C=C/CN3CCn4cc(C(F)(F)F)nc4C3)C5)cc2C)cn1 [Compound 61] | 1000 to 10000 nM | 1000 to 10000 nM
Cc1ccc(Oc2ccc(Nc3ncnc4sc5c(c34)CCN(C(=O)/C=C/CN3CCC(n4ccnc4)CC3)C5)cc2C)cn1 [Compound 62] | < 100 nM | < 100 nM
Cc1cc(Nc2ncnc3sc4c(c23)CCN(C(=O)/C=C/CN(C)C)C4)ccc1Oc1cccc(B(O)O)c1 [Compound 64, (E)-(3-(4-((7-(4-(dimethylamino)but-2-enoyl)-5,6,7,8-tetrahydropyrido[4′,3′:4,5]thieno[2,3-d]pyrimidin-4-yl)amino)-2-methylphenoxy)phenyl)boronic acid] | < 100 nM | < 100 nM
Cc1ccc(Oc2ccc(Nc3ncnc4sc5c(c34)CCN(C(=O)/C=C/CNCCO)C5)cc2C)cn1 [Compound 65] | < 100 nM | < 100 nM
Cc1ccc(Oc2ccc(Nc3ncnc4sc5c(c34)CCN(C(=O)/C=C/CN3C[C@H]4CC[C@@H](C3)O4)C5)cc2C)cn1 [Compound 66] | < 100 nM | < 100 nM
Cc1ccc(Oc2ccc(Nc3ncnc4sc5c(c34)CCN(C(=O)/C=C/CN3CCC4(CCOC4)C3)C5)cc2C)cn1 (stereo not shown) [Compound 67] | < 100 nM | < 100 nM
Cc1ccc(Oc2ccc(Nc3ncnc4sc5c(c34)CCN(C(=O)/C=C/CN[C@H]3CC[C@H](OC4CC4)CC3)C5)cc2C)cn1 [Compound 68] | < 100 nM | < 100 nM
Cc1ccc(Oc2ccc(Nc3ncnc4sc5c(c34)CCN(C(=O)/C=C/CN[C@H]3CC[C@H](OC(F)F)CC3)C5)cc2C)cn1 [Compound 69] | < 100 nM | < 100 nM
Cc1ccc(Oc2ccc(Nc3ncnc4sc5c(c34)CCN(C(=O)/C=C/CN[C@H]3CC[C@H](OCC(F)(F)F)CC3)C5)cc2C)cn1 [Compound 70] | < 100 nM | < 100 nM
Cc1ccc(Oc2ccc(Nc3ncnc4sc5c(c34)CCN(C(=O)/C=C/CNC3CCC(C(=O)N(C)C)CC3)C5)cc2C)cn1 (stereo not shown) [Compound 71] | < 100 nM | < 100 nM
Cc1ccc(Oc2ccc(Nc3ncnc4sc5c(c34)CCN(C(=O)/C=C/CNC34CCC(C#N)(CC3)CC4)C5)cc2C)cn1 [Compound 72] | < 100 nM | < 100 nM
Cc1ccc(Oc2ccc(Nc3ncnc4sc5c(c34)CCN(C(=O)/C=C/CN[C@H]3CCC[C@H](O)C3)C5)cc2C)cn1 [Compound 73] | < 100 nM | < 100 nM
Cc1ccc(Oc2ccc(Nc3ncnc4sc5c(c34)CCN(C(=O)/C=C/CN3CCC(O)C3)C5)cc2C)cn1 (stereo not shown) [Compound 74] | < 100 nM | < 100 nM
Cc1ccc(Oc2ccc(Nc3ncnc4sc5c(c34)CCN(C(=O)/C=C/CN[C@@H](C)CO)C5)cc2C)cn1 [Compound 75] | < 100 nM | < 100 nM
Cc1ccc(Oc2ccc(Nc3ncnc4sc5c(c34)CCN(C(=O)/C=C/CN3CC4CC4C3)C5)cc2C)cn1 (stereo not shown) [Compound 76] | < 100 nM | < 100 nM
Cc1cc(Nc2ncnc3sc4c(c23)CCN(C(=O)/C=C/CN2CC3CC2CO3)C4)ccc1Oc1ccc2ncnn2c1 (stereo not shown) [Compound 77] | 100 to 1000 nM | 100 to 1000 nM
Cc1cc(Nc2ncnc3sc4c(c23)CCN(C(=O)/C=C/CN(C)C(C)(C)C)C4)ccc1Oc1ccc2ncnn2c1 [Compound 80] | < 100 nM | < 100 nM
Cc1cc(Nc2ncnc3sc4c(c23)CCN(C(=O)/C=C/CN2CC3C(CO)C3C2)C4)ccc1Oc1ccc2ncnn2c1 (stereo not shown) [Compound 81] | < 100 nM | < 100 nM
Cc1cc(Nc2ncnc3sc4c(c23)CCN(C(=O)/C=C/CN2CC3CC(C3)C2)C4)ccc1Oc1ccc2ncnn2c1 [Compound 82] | < 100 nM | < 100 nM
Cc1cc(Nc2ncnc3sc4c(c23)CCN(C(=O)/C=C/CN2CC(C)OC(C)C2C)C4)ccc1Oc1ccc2ncnn2c1 (stereo not shown) [Compound 83] | 100 to 1000 nM | 100 to 1000 nM
O=C(/C=C/CN1CC2CC(C2)C1)N1CCc2c(sc3ncnc(Nc4ccc(Oc5ccc6ncnn6c5)c(Cl)c4)c23)C1 [Compound 85] | < 100 nM | < 100 nM

Now from value to compound:

IC50 (HER2 WT) | IC50 (HER2YVMA) | Structure (SMILES)
100 to 1000 nM | 100 to 1000 nM | Cc1cc(Nc2ncnc3sc4c(c23)CCN(C(=O)/C=C/CN2CC(C)(C)OC(C)(C)C2)C4)ccc1Oc1ccc2ncnn2c1 [Compound 84]
100 to 1000 nM | 1000 to 10000 nM | C=C(CN1CCc2c(sc3ncnc(Nc4ccc(Oc5ccc(C)nc5)c(C)c4)c23)C1)C(=O)OCC [Compound 86, Ethyl 2-((4-((3-methyl-4-((6-methylpyridin-3-yl)oxy)phenyl)amino)-5,8-dihydropyrido[4′,3′:4,5]thieno[2,3-d]pyrimidin-7(6H)-yl)methyl)acrylate]
< 100 nM | < 100 nM | O=C(/C=C/CN1CC2CC1CO2)N1CCc2c(sc3ncnc(Nc4ccc(Oc5ccc6ncnn6c5)c(Cl)c4)c23)C1 (stereo not shown) [Compound 87]
< 100 nM | < 100 nM | O=C(/C=C/CN1CC2CCC(C2)C1)N1CCc2c(sc3ncnc(Nc4ccc(Oc5ccc6ncnn6c5)c(Cl)c4)c23)C1 [Compound 88]
< 100 nM | < 100 nM | CN(C/C=C/C(=O)N1CCc2c(sc3ncnc(Nc4ccc(Oc5ccc6ncnn6c5)c(Cl)c4)c23)C1)C(C)(C)C [Compound 91]
< 100 nM | < 100 nM | O=C(/C=C/CN1CC2C(CO)C2C1)N1CCc2c(sc3ncnc(Nc4ccc(Oc5ccc6ncnn6c5)c(Cl)c4)c23)C1 (stereo not shown) [Compound 92]
< 100 nM | < 100 nM | C=CC(=O)N1CCc2[nH]c3ncnc(Nc4ccc(Oc5ccc(C)nc5)c(C)c4)c3c2C1 [Compound 94, 1-(4-((3-methyl-4-((6-methylpyridin-3-yl)oxy)phenyl)amino)-7,8-dihydro-5H-pyrido[3′,4′:4,5]pyrrolo[2,3-d]pyrimidin-6(9H)-yl)prop-2-en-1-one]
< 100 nM | < 100 nM | COc1ccc(Oc2ccc(Nc3ncnc4sc5c(c34)CCN(C(=O)/C=C/CN(C)C)C5)cc2C)cn1 [Compound 95, (E)-4-(Dimethylamino)-1-(4-((4-((6-methoxypyridin-3-yl)oxy)-3-methylphenyl)amino)-5,6-dihydropyrido[4′,3′:4,5]thieno[2,3-d]pyrimidin-7(8H)-yl)but-2-en-1-one]
< 100 nM | < 100 nM | CCOC/C=C/C(=O)N1CCc2c(sc3ncnc(Nc4ccc(Oc5ccc(C)nc5)c(C)c4)c23)C1 [Compound 96, (E)-4-ethoxy-1-(4-((3-methyl-4-((6-methylpyridin-3-yl)oxy)phenyl)amino)-5,8-dihydropyrido[4′,3′:4,5]thieno[2,3-d]pyrimidin-7(6H)-yl)but-2-en-1-one]
< 100 nM | < 100 nM | Cc1ccc(Oc2ccc(Nc3ncnc4[nH]c5c(c34)CN(C(=O)/C=C/CN(C)C)CC5)cc2C)cn1 [Compound 97, (E)-4-(dimethylamino)-1-(4-((3-methyl-4-((6-methylpyridin-3-yl)oxy)phenyl)amino)-5,7,8,9-tetrahydro-6H-pyrido[3′,4′:4,5]pyrrolo[2,3-d]pyrimidin-6-yl)but-2-en-1-one]
< 100 nM | < 100 nM | Cc1ccc(Oc2ccc(Nc3ncnc4sc5c(c34)C(C)CN(C(=O)/C=C/CN(C)C)C5)cc2C)cn1 (stereo not shown) [Compound 98, (E)-4-(dimethylamino)-1-(5-methyl-4-((3-methyl-4-((6-methylpyridin-3-yl)oxy)phenyl)amino)-5,8-dihydropyrido[4′,3′:4,5]thieno[2,3-d]pyrimidin-7(6H)-yl)but-2-en-1-one]
